{"source": "paper PMC8242589", "about": "“Cardiac Safety of Kinase Inhibitors – Improving Understanding and Prediction of Liabilities in Drug Discovery Using Human Stem Cell-Derived Models” (Frontiers in Cardiovascular Medicine, 2021)", "key": {"[1]": {"tested_on": "hSC-CMs (Cor.4U Cardiomyocytes)", "assay": "CardioExcyte 96 impedance and EFP recording (beating rate, base impedance)", "format": "cell-based, human", "settings": "for BR / Base Imp / activity at 0.3 µM / activity at 3 µM / activity at 30 µM / activity at 300 µM: vs baseline before drug (taken as 100%); for Effect on base impedance, in words: hSC-CMs, 2 and 24 h; for activity at 0.3 µM / activity at 3 µM / activity at 30 µM / activity at 300 µM: Homo sapiens, Cardiomyocyte", "experimental": "Cor.4U® Cardiomyocytes (Ncardia, Netherlands) were cultured in 96-well plates at density of 25,000 – 30,000 cells per well. Cells were maintained at 5% CO2 and 37 °C for 4 days prior to experiments.\nFunctional monitoring of cardiomyocytes was done using CardioExcyte® 96 (Nanion technologies GmbH, Germany). Extracellular field potential (EFP) and impedance signals were recorded from hSC-CMs that formed monolayers in the wells of the NSP-96 plate. Beating Rate (BR, per minute) was calculated as the reciprocal of the inter-spike interval (ISI) in EFP signal. Impedance signals from spontaneously beating hSC-CMs were recorded with a sampling rate of 1 ms (1 kHz), and EFP data were collected at 0.1ms (10 kHz). Data acquisition was controlled by CardioExcyte® 96 Control software as previously described ([22]). The functional parameters recorded in each concentration of test items were compared to the base line values before drug addition (taken as 100%) to define fractional change."}, "[2]": {"tested_on": "hSC-CMs (Cor.4U Cardiomyocytes)", "assay": "Apoptosis assay (CellEvent Caspase-3/7 Green, IncuCyte ZOOM kinetics over 24 h)", "format": "cell-based, human", "parameters": "key to Caspase / Caspase MEAN: % of time-matched vehicle control (green object area)", "experimental": "Cor.4U® Cardiomyocytes ([…], Netherlands) were cultured in 96-well plates at density of 25,000 - 30,000 cells per well. Cells were maintained at 5% CO2 and 37 °C for 4 days prior to experiments. […] The plates were incubated 2 h before compound treatment in the IncuCyte ZOOM (ESSEN BioScience, Ann Arbor, Michigan) to set a baseline before the 24 h compound treatment. […] Imaging was done using 10x microscope objective of the IncuCyteZOOM with four images per well-taken every 2 h in both phase-contrast and green fluorescence. The fluorescent nuclear signal of the apoptotic cells was separated from background with the integrated object counting algorithm, adjusted to cardiomyocytes, and the calculated total green object area per well (μm^2/well) plotted against time. Data were normalized to those of the time-matched vehicle control. Data were representative of at least three replicates per concentration."}, "[3]": {"tested_on": "hSC-CMs (Cor.4U Cardiomyocytes)", "assay": "ATP assay (CellTiter-Glo Luminescent Cell Viability Assay)", "format": "cell-based, human", "settings": "for ATP / viability at 0.3 µM / viability at 3 µM / viability at 30 µM / viability at 300 µM: normalized to time-matched DMSO control; for viability at 0.3 µM / viability at 3 µM / viability at 30 µM / viability at 300 µM: Homo sapiens, Cardiomyocyte", "experimental": "Cor.4U® Cardiomyocytes (Ncardia, Netherlands) were cultured in 96-well plates at density of 25,000 – 30,000 cells per well. Cells were maintained at 5% CO2 and 37 °C for 4 days prior to experiments. The cell culture medium (Cor4U® Complete Culture Medium, cat# Ax-M-HC250E, Axiogenesis AG, Cologne, Germany) was changed every 24 h and was replaced by serum-free BMCC medium (cat# Ax-M-BMCC259, Axiogenesis AG, Cologne, Germany) 12 h prior to drug addition.\nThe CellTiter-Glo Luminescent Cell Viability Assay (cat# G7572, Promega, USA) was performed for quantification of the cellular ATP concentration according to manufacturer's instructions. Plates were shaken for 2 min in the dark, incubated at ambient temperature for 10 min before measuring luminescence (Integration time 0.1 seconds per well) with Luminescence Counter (Synergy H1, BioTek Instruments, Inc., Winooski, Vermont). The measured ATP concentration values were normalized to the time-matched DMSO controls. Data are representative of at least three replicates per concentration."}, "ROCK1": {"tested_on": "ROCK1", "settings": "ref [36] (RKI-1447), [37], [38] (Fasudil), [39]–[43] (Y-27632), [44], [45] (GSK-429286); read-out: Target IC50 ROCK1; cited from earlier work"}, "[4]": {"settings": "Homo sapiens, Cardiomyocyte, 2h, normalized to time-matched vehicle control"}, "[5]": {"settings": "Homo sapiens, Cardiomyocyte, 24h, normalized to time-matched vehicle control"}}, "note": "Entries after “also recorded” stand apart in the source; their conditions may differ.", "data": [{"compound": "O=C(NCc1cccc(O)c1)Nc1nc(-c2ccncc2)cs1", "note": "[RKI-1447]", "values": [{"measurement": "BR", "setting": "[1]; 0.01 µM, 2h", "result": 107}, {"measurement": "Base Imp", "setting": "[1]; 0.01 µM, 2h", "result": 87}, {"measurement": "BR", "setting": "[1]; 0.01 µM, 24h", "result": 100}, {"measurement": "Base Imp", "setting": "[1]; 0.01 µM, 24h", "result": 88}, {"measurement": "BR", "setting": "[1]; 0.1 µM, 2h", "result": 106}, {"measurement": "Base Imp", "setting": "[1]; 0.1 µM, 2h", "result": 86}, {"measurement": "BR", "setting": "[1]; 0.1 µM, 24h", "result": 101}, {"measurement": "Base Imp", "setting": "[1]; 0.1 µM, 24h", "result": 81}, {"measurement": "BR", "setting": "[1]; 1 µM, 2h", "result": 110}, {"measurement": "Base Imp", "setting": "[1]; 1 µM, 2h", "result": 80}, {"measurement": "BR", "setting": "[1]; 1 µM, 24h", "result": 107}, {"measurement": "Base Imp", "setting": "[1]; 1 µM, 24h", "result": 69}, {"measurement": "BR", "setting": "[1]; 10 µM, 2h", "result": 112}, {"measurement": "Base Imp", "setting": "[1]; 10 µM, 2h", "result": 68}, {"measurement": "BR", "setting": "[1]; 10 µM, 24h", "result": 115}, {"measurement": "Base Imp", "setting": "[1]; 10 µM, 24h", "result": 65}, {"measurement": "Effect on base impedance, in words", "setting": "[1]", "result": "concentration-and time-dependent decrease in base impedance; also recorded: concentration-dependent effects"}, {"measurement": "Caspase", "setting": "[2]; 0.01 µM, 2h, normalized to time-matched vehicle control", "result": 116}, {"measurement": "Caspase", "setting": "[2]; 0.01 µM, 24h, normalized to time-matched vehicle control", "result": 115}, {"measurement": "Caspase", "setting": "[2]; 0.1 µM, 2h, normalized to time-matched vehicle control", "result": 117}, {"measurement": "Caspase", "setting": "[2]; 0.1 µM, 24h, normalized to time-matched vehicle control", "result": 115}, {"measurement": "Caspase", "setting": "[2]; 1 µM, 2h, normalized to time-matched vehicle control", "result": 90}, {"measurement": "Caspase", "setting": "[2]; 1 µM, 24h, normalized to time-matched vehicle control", "result": 110}, {"measurement": "Caspase", "setting": "[2]; 10 µM, 2h, normalized to time-matched vehicle control", "result": 93}, {"measurement": "Caspase", "setting": "[2]; 10 µM, 24h, normalized to time-matched vehicle control", "result": 129}, {"measurement": "ATP", "setting": "[3]; 0.01 µM, 2h", "result": 98}, {"measurement": "ATP", "setting": "[3]; 0.01 µM, 24h", "result": 102}, {"measurement": "ATP", "setting": "[3]; 0.1 µM, 2h", "result": 99}, {"measurement": "ATP", "setting": "[3]; 0.1 µM, 24h", "result": 99}, {"measurement": "ATP", "setting": "[3]; 1 µM, 2h", "result": 101}, {"measurement": "ATP", "setting": "[3]; 1 µM, 24h", "result": 98}, {"measurement": "ATP", "setting": "[3]; 10 µM, 2h", "result": 104}, {"measurement": "ATP", "setting": "[3]; 10 µM, 24h", "result": 102}, {"measurement": "IC50", "setting": "ROCK1", "result": 14.5, "unit": "nM"}]}, {"compound": "O=S(=O)(c1cccc2cnccc12)N1CCCNCC1", "note": "[Fasudil]", "values": [{"measurement": "activity at 0.3 µM", "setting": "[1]; 2h, read-out: BR", "result": 100, "unit": "%"}, {"measurement": "activity at 0.3 µM", "setting": "[1]; 2h, read-out: Base Imp", "result": 87, "unit": "%"}, {"measurement": "activity at 0.3 µM", "setting": "[1]; 24h, read-out: BR", "result": 97, "unit": "%"}, {"measurement": "activity at 0.3 µM", "setting": "[1]; 24h, read-out: Base Imp", "result": 87, "unit": "%"}, {"measurement": "activity at 3 µM", "setting": "[1]; 2h, read-out: BR", "result": 97, "unit": "%"}, {"measurement": "activity at 3 µM", "setting": "[1]; 2h, read-out: Base Imp", "result": 86, "unit": "%"}, {"measurement": "activity at 3 µM", "setting": "[1]; 24h, read-out: BR", "result": 100, "unit": "%"}, {"measurement": "activity at 3 µM", "setting": "[1]; 24h, read-out: Base Imp", "result": 85, "unit": "%"}, {"measurement": "activity at 30 µM", "setting": "[1]; 2h, read-out: BR", "result": 96, "unit": "%"}, {"measurement": "activity at 30 µM", "setting": "[1]; 2h, read-out: Base Imp", "result": 82, "unit": "%"}, {"measurement": "activity at 30 µM", "setting": "[1]; 24h, read-out: BR", "result": 94, "unit": "%"}, {"measurement": "activity at 30 µM", "setting": "[1]; 24h, read-out: Base Imp", "result": 71, "unit": "%"}, {"measurement": "activity at 300 µM", "setting": "[1]; 2h, read-out: BR", "result": 70, "unit": "%"}, {"measurement": "activity at 300 µM", "setting": "[1]; 2h, read-out: Base Imp", "result": 65, "unit": "%"}, {"measurement": "activity at 300 µM", "setting": "[1]; 24h, read-out: BR", "result": 110, "unit": "%"}, {"measurement": "activity at 300 µM", "setting": "[1]; 24h, read-out: Base Imp", "result": 44, "unit": "%"}, {"measurement": "Effect on base impedance, in words", "setting": "[1]", "result": "concentration-and time-dependent decrease in base impedance; also recorded: concentration-dependent effects"}, {"measurement": "Inhibition of beating rate", "setting": "[1]; highest test concentration, after 2 h of incubation", "result": "~ 30%"}, {"measurement": "activity at 0.3 µM", "setting": "[2]; [4]", "result": 136, "unit": "%"}, {"measurement": "activity at 0.3 µM", "setting": "[2]; [5]", "result": 80, "unit": "%"}, {"measurement": "activity at 3 µM", "setting": "[2]; [4]", "result": 119, "unit": "%"}, {"measurement": "activity at 3 µM", "setting": "[2]; [5]", "result": 83, "unit": "%"}, {"measurement": "activity at 30 µM", "setting": "[2]; [4]", "result": 107, "unit": "%"}, {"measurement": "activity at 30 µM", "setting": "[2]; [5]", "result": 138, "unit": "%"}, {"measurement": "activity at 300 µM", "setting": "[2]; Homo sapiens, Cardiomyocyte, 300 µM, 2h, normalized to time-matched vehicle control", "result": 97, "unit": "%"}, {"measurement": "Time of notable raise in the caspase-3/7 activity", "setting": "[2]; highest test concentrations only", "result": "12 to 18", "unit": "h"}, {"measurement": "Apoptosis (caspase-3/7 activity) at the highest test concentration, in words", "setting": "[2]; top / highest test concentration, over 24 h", "result": "[…]"}, {"measurement": "viability at 0.3 µM", "setting": "[3]; 2h", "result": 87, "unit": "%"}, {"measurement": "viability at 0.3 µM", "setting": "[3]; 24h", "result": 96, "unit": "%"}, {"measurement": "viability at 3 µM", "setting": "[3]; 2h", "result": 91, "unit": "%"}, {"measurement": "viability at 3 µM", "setting": "[3]; 24h", "result": 102, "unit": "%"}, {"measurement": "viability at 30 µM", "setting": "[3]; 2h", "result": 97, "unit": "%"}, {"measurement": "viability at 30 µM", "setting": "[3]; 24h", "result": 100, "unit": "%"}, {"measurement": "viability at 300 µM", "setting": "[3]; 2h", "result": 101, "unit": "%"}, {"measurement": "viability at 300 µM", "setting": "[3]; 24h", "result": 91, "unit": "%"}, {"measurement": "Reduction in the ATP content", "setting": "[3]; top concentration", "result": 9, "unit": "%"}, {"measurement": "IC50", "setting": "ROCK1", "result": "[…]"}]}]}
